Converted amounts (≈) assume the structure as drawn.
Assays:
[1] = test system: Penicillin(PC)-resistant S. aureus (5); assay: MIC by two-fold serial agar dilution, group Gp-Ib; format: cell-based; settings: Staphylococcus aureus, Gp-Ib (5), Mueller-Hinton agar, read-out: Geometric mean of MIC, Gp-Ib
Description: (§1) Minimum inhibitory concentrations (MICs) for the compounds in the above examples were determined against thirty two strains of test organisms by a two-fold serial agar dilution method in Mueller-Hinton agar. Geometric means of MICs were calculated against six groups of the test organisms which are classified as follows and summarized in Table 1.
Gp-Ib Penicillin(PC)-resistant S. aureus (5).

[2] = test system: Penicillin(PC)-sensitive S. aureus (5 strains); assay: MIC by two-fold serial agar dilution, group Gp-Ia; format: cell-based; settings: Staphylococcus aureus, Gp-Ia (5 strains), Mueller-Hinton agar, read-out: Geometric mean of MIC, Gp-Ia
Description: as §1
Gp-Ia Penicillin(PC)-sensitive S. aureus (5 strains).

[3] = test system: M. morganii (1), Ent. cloacae (2) and Ser. marcescens (2); assay: MIC by two-fold serial agar dilution, group Gn-II; format: cell-based; settings: Gn-II (5), Mueller-Hinton agar, read-out: Geometric mean of MIC, Gn-II
Description: as §1
Gn-II M. morganii (1), Ent. cloacae (2) and Ser.

S. aureus Smith [4] = assay: MIC against S. aureus Smith; format: cell-based; settings: Staphylococcus aureus
Description: as §1
(§2) In vivo antibacterial activity was determined against three bacterial infections (S. aureus Smith, E. coli Juhl and P. aeruginosa A98483A) by intramuscular administration to mice just after the bacterial challenge. PD50 values are summarized in Table 2 in comparison with the MIC values against the corresponding organisms.

P. aeruginosa A9843A [5] = assay: MIC against P. aeruginosa A9843A; format: cell-based; settings: Pseudomonas aeruginosa, read-out: MIC, P. aeruginosa A9843A
Description: as §1, §2

P. aeruginosa A9843A [6] = assay: In vivo antibacterial activity in infected mice, P. aeruginosa A9843A; settings: Pseudomonas aeruginosa, im, read-out: PD50, P. aeruginosa A9843A
Description: as §2

Ps. aeruginosa (7) = assay: MIC by two-fold serial agar dilution, group Gn-III; format: cell-based; settings: Pseudomonas aeruginosa, Gn-III (7), Mueller-Hinton agar, read-out: Geometric mean of MIC, Gn-III
Description: as §1
Gn-III Ps. aeruginosa (7).

S. aureus Smith [7] = assay: In vivo antibacterial activity in infected mice, S. aureus Smith; settings: Staphylococcus aureus, im, just after the bacterial challenge, read-out: PD50, S. aureus Smith
Description: as §2

E. coli Juhl [8] = assay: In vivo antibacterial activity in infected mice, E. coli Juhl; settings: Escherichia coli, im, just after the bacterial challenge, read-out: PD50, E. coli Juhl
Description: as §2

[9] = test system: Cephalothin(CET)-sensitive E. coli (2), Kl. pneumoniae (1) and Pr. mirabilis (2); assay: MIC by two-fold serial agar dilution, group Gn-Ia; format: cell-based; settings: Gn-Ia (5), Mueller-Hinton agar, read-out: Geometric mean of MIC, Gn-Ia
Description: as §1
Gn-Ia Cephalothin(CET)-sensitive E. coli (2), Kl.
pneumoniae (1) and Pr. mirabilis (2).

E. coli Juhl [10] = assay: MIC against E. coli Juhl; format: cell-based; settings: Escherichia coli
Description: as §1, §2

[11] = test system: Cephalothin(CET)-resistant E. coli (3) and Kl. pneumoniae (2); assay: MIC by two-fold serial agar dilution, group Gn-Ib; format: cell-based; settings: Escherichia coli, read-out: Geometric mean of MIC, Gn-Ib
Description: as §1
Gn-Ib Cephalothin(CET)-resistant E. coli (3) and Kl.

For `C[N+]1(CC2=C(C(=O)[O-])N3C(=O)C(NC(=O)C(=NOC(C(=O)O)c4ccc(O)c(O)c4)c4csc(N)n4)C3SC2)CCCC1` (stereo not drawn) [Ia, 7-[(2-(2-Aminothiazol-4-yl)-2[(Z)-[carboxy(3,4-dihydroxyphenyl)methyl]oxyimino]acetamido]-3-(1-methylpyrrolidinio)methyl-3-cephem-4-carboxylate], the MIC [1] was 3.1 µg/mL (≈ 4.9 µM), the MIC [2] was 1.4 µg/mL (≈ 2.21 µM) and the MIC [3] was 0.8 µg/mL (≈ 1.26 µM). The MIC (S. aureus Smith [4]) was 1.6 µg/mL (≈ 2.53 µM), the MIC (P. aeruginosa A9843A [5]) was 1.6 µg/mL (≈ 2.53 µM) and the ED50 (P. aeruginosa A9843A [6]) was 6.3 mg/kg. The MIC (Ps. aeruginosa (7)) was 1.6 µg/mL (≈ 2.53 µM), the ED50 (S. aureus Smith [7]) was 5.6 mg/kg and the ED50 (E. coli Juhl [8]) was 0.14 mg/kg. For the same compound, the MIC [9] was 0.3 µg/mL (≈ 0.474 µM), the MIC (E. coli Juhl [10]) was 0.2 µg/mL (≈ 0.316 µM) and the MIC [11] was 0.4 µg/mL (≈ 0.632 µM).
For `C/C=C\C1=C(C(=O)O)N2C(=O)C(NC(=O)/C(=N\OC(C(=O)O)c3ccc(O)c(O)c3)c3csc(N)n3)C2SC1` (stereo not drawn) [Ib], the MIC [1] was 2.1 µg/mL (≈ 3.65 µM), the MIC [2] was 0.92 µg/mL (≈ 1.6 µM) and the MIC [3] was 7.3 µg/mL (≈ 12.7 µM). It also gave an MIC (S. aureus Smith [4]) of 0.8 µg/mL (≈ 1.39 µM), an MIC (P. aeruginosa A9843A [5]) of 3.1 µg/mL (≈ 5.39 µM) and an ED50 (P. aeruginosa A9843A [6]) of 17 mg/kg. It also gave an MIC (Ps. aeruginosa (7)) of 5.1 µg/mL (≈ 8.86 µM), an ED50 (S. aureus Smith [7]) of 6.8 mg/kg and an ED50 (E. coli Juhl [8]) of 1.5 mg/kg. It also gave an MIC [9] of 0.17 µg/mL (≈ 0.295 µM), an MIC (E. coli Juhl [10]) of 0.4 µg/mL (≈ 0.695 µM) and an MIC [11] of 0.35 µg/mL (≈ 0.608 µM).
In the case of `Nc1nc(/C(=N/OC(C(=O)O)c2ccc(O)c(O)c2)C(=O)NC2C(=O)N3C(C(=O)[O-])=C(/C=C/C[n+]4ccccc4)CSC23)cs1` (stereo not drawn) [Ic], the MIC [1] was 0.4 µg/mL (≈ 0.613 µM), the MIC [2] was 0.26 µg/mL (≈ 0.398 µM) and the MIC [3] was 0.46 µg/mL (≈ 0.705 µM). It also gave an MIC (S. aureus Smith [4]) of 0.4 µg/mL (≈ 0.613 µM), an MIC (P. aeruginosa A9843A [5]) of 3.1 µg/mL (≈ 4.75 µM) and an ED50 (P. aeruginosa A9843A [6]) of 12 mg/kg. It also gave an MIC (Ps. aeruginosa (7)) of 2.3 µg/mL (≈ 3.52 µM), an ED50 (S. aureus Smith [7]) of 1.4 mg/kg and an ED50 (E. coli Juhl [8]) of 0.067 mg/kg. For the same compound, the MIC [9] was 0.076 µg/mL (≈ 0.116 µM), the MIC (E. coli Juhl [10]) was 0.05 µg/mL (≈ 0.0766 µM) and the MIC [11] was 0.15 µg/mL (≈ 0.23 µM).
With `Nc1nc(/C(=N/OCc2cc(O)c(O)cc2C(=O)O)C(=O)NC2C(=O)N3C(C(=O)[O-])=C(/C=C/C[n+]4ccccc4)CSC23)cs1` (stereo not drawn) [Id] the MIC [1] was 1.6 µg/mL (≈ 2.45 µM), the MIC [2] was 0.61 µg/mL (≈ 0.935 µM) and the MIC [3] was 0.46 µg/mL (≈ 0.705 µM). The MIC (S. aureus Smith [4]) was 0.8 µg/mL (≈ 1.23 µM), the MIC (P. aeruginosa A9843A [5]) was 0.8 µg/mL (≈ 1.23 µM) and the ED50 (P. aeruginosa A9843A [6]) was 7.2 mg/kg. It also gave an MIC (Ps. aeruginosa (7)) of 0.88 µg/mL (≈ 1.35 µM), an ED50 (S. aureus Smith [7]) of 1 mg/kg and an ED50 (E. coli Juhl [8]) of 0.017 mg/kg. It also gave an MIC [9] of 0.087 µg/mL (≈ 0.133 µM), an MIC (E. coli Juhl [10]) of 0.1 µg/mL (≈ 0.153 µM) and an MIC [11] of 0.17 µg/mL (≈ 0.26 µM).
`C[N+]1(CC2=C(C(=O)[O-])N3C(=O)C(NC(=O)/C(=N\OC(C(=O)O)c4ccc(O)c(O)c4)c4csc(N)n4)[C@H]3SC2)Cc2cc(O)c(O)cc2C1` (stereo partly drawn) [Ie, 7-[2-(2-Aminothiazol-4-yl)-2-[(Z)-[carboxy(3,4-dihydroxy-phenyl)methyl]oxyimino]acetamido]-3-(5,6-dihydroxy-2-methyl-2-isoindolinio)methyl-3-cephem-4-carboxylate] showed an MIC [1] of 13 µg/mL (≈ 18.2 µM), an MIC [2] of 8.3 µg/mL (≈ 11.6 µM) and an MIC [3] of 1.6 µg/mL (≈ 2.24 µM). For the same compound, the MIC (S. aureus Smith [4]) was 12.5 µg/mL (≈ 17.5 µM), the MIC (P. aeruginosa A9843A [5]) was 0.4 µg/mL (≈ 0.561 µM) and the ED50 (P. aeruginosa A9843A [6]) was 2.1 mg/kg. It also gave an MIC (Ps. aeruginosa (7)) of 0.3 µg/mL (≈ 0.421 µM), an ED50 (S. aureus Smith [7]) of 2.4 mg/kg and an ED50 (E. coli Juhl [8]) of 0.045 mg/kg. For the same compound, the MIC [9] was 0.46 µg/mL (≈ 0.645 µM), the MIC (E. coli Juhl [10]) was 0.8 µg/mL (≈ 1.12 µM) and the MIC [11] was 0.46 µg/mL (≈ 0.645 µM).
